In test [1] the target is T1, human recombinant adrenergic α1D receptor (Homo sapiens, UniProt P25100).
T1 construct: expressed in transfected cells; host or cells: HEK-293 cells
T1 sequence (P25100 1-572): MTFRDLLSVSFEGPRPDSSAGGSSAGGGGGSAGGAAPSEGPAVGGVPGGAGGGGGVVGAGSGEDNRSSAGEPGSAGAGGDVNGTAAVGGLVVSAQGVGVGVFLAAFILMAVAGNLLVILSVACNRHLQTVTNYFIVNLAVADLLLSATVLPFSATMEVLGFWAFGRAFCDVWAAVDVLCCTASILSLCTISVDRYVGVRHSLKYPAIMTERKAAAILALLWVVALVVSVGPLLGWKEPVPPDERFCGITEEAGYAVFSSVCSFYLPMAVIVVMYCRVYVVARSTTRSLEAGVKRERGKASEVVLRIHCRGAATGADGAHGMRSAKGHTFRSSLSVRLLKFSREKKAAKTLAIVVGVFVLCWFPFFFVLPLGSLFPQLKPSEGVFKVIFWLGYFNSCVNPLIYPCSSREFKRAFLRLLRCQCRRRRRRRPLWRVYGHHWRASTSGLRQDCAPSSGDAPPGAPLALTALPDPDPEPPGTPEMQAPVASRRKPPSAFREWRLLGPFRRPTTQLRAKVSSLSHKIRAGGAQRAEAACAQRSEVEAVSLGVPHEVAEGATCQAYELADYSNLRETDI
Briefly: Adrenergic α1D radioligand binding ([3H]Prozosin). Set-up: Inhibition of ligand binding, Adren. alpha1D: concentration or dose not given beside the values. The following applies: percent inhibition of specific binding. On the procedure:
Compounds of invention were incubated with 0.6 nM [^3H]Prozosin for 60 minutes at 25° C. Non-specific binding was estimated in the presence of 10 μM phentolamine. Receptor proteins were filtered and washed, the filters were then counted to determine [^3H]Prozosin specifically bound. […] Biochemical assay results are presented as the percent inhibition of specific binding in Table 6.

The target in test [2] is T2, human recombinant dopamine D2L receptor (Homo sapiens, UniProt P14416).
T2 construct: expressed in transfected cells; host or cells: CHO cells
Briefly: Dopamine D2L radioligand binding ([3H]Spiperone). To be noted: percent inhibition of specific binding. On the procedure:
Non-specific binding was estimated in the presence of 10 μM Haloperidol. Receptor proteins were filtered and washed, the filters were then counted to determine [^3H]Spiperone specifically bound. […] Biochemical assay results are presented as the percent inhibition of specific binding in Table 6.

Test [3] addresses T3, human recombinant adrenergic α2A receptor (Homo sapiens, UniProt P08913).
T3 construct: expressed in transfected cells; host or cells: insect Sf9 cells
T3 sequence (P08913 1-465): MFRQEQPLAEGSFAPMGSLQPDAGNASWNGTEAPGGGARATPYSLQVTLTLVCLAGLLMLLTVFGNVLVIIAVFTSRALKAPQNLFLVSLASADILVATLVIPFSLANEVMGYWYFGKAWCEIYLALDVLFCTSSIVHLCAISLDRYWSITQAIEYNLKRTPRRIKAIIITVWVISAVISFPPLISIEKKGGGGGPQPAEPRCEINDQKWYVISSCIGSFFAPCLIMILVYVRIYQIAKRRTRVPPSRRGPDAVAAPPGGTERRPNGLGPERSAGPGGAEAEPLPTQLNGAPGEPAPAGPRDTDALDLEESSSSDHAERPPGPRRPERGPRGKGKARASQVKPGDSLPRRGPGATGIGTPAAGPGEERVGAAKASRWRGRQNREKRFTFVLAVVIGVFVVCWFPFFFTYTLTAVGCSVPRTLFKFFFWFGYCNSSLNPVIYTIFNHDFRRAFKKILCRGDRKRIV
In words: Adrenergic α2A radioligand binding ([3H]MK-912). To be noted: percent inhibition of specific binding. Set-up: Inhibition of ligand binding, Adren. alpha2A: concentration or dose not given beside the values. An outline of the steps:
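Membranes from Sf9 cells expressing the receptor were incubated with 1 nM [3H]MK-912 for 60 minutes at 25° C in 50 mM Tris-HCl pH 7.4, 12.5 mM MgCl2, 2 mM EDTA. 10 μM WB-4101 defined non-specific binding. Values are percent inhibition of specific bound radioactivity after filtration.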

The target in test [4] is T4, human recombinant histamine H2 receptor (Homo sapiens, UniProt P25021).
T4 construct: expressed in transfected cells; host or cells: CHO-K1 cells
In words: Histamine H2 radioligand binding ([125I]Aminopotentidine). The following applies: percent inhibition of specific binding; screened at 1 μM; read-out: Inhibition of ligand binding, Hist. H2. An outline of the steps:
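This radioligand binding assay measured displacement of [125I]Aminopotentidine from recombinant human histamine H2 receptors. Compounds were dissolved in 1% DMSO vehicle. Specific binding was calculated by subtracting non-specific binding, defined using 3 μM Tiotidine, and activity was reported as percentage inhibition of that specific binding.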

In test [5] the target is T5, human recombinant serotonin (5-Hydroxytryptamine) 5-HT2A receptor (Homo sapiens, UniProt P28223).
T5 construct: expressed in transfected cells; host or cells: CHO-K1 cells
Briefly: Serotonin 5-HT2A radioligand binding ([3H]Ketanserin). The following applies: percent inhibition of specific binding. The protocol: Compounds of the invention were incubated with 0.5 nM [^3H]Ketanserin for 60 minutes at 25° C. Non-specific binding was estimated in the presence of 1 μM Mianserin. Receptor proteins were filtered and washed, the filters were then counted to determine [^3H]Ketanserin specifically bound. […] Biochemical assay results are presented as the percent inhibition of specific binding in Table 6.

T2 sequence (P14416 whole entry): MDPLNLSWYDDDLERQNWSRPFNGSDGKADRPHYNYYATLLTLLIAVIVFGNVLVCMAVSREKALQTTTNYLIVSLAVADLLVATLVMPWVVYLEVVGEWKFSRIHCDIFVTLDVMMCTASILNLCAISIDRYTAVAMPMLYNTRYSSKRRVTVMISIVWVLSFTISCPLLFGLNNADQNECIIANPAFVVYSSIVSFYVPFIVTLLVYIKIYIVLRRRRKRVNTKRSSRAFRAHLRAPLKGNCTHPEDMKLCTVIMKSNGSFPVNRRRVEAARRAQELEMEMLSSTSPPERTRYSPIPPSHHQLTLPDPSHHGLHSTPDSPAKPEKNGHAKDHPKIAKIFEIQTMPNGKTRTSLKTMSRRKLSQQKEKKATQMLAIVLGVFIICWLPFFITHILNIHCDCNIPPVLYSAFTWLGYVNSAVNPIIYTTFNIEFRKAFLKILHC
T5 sequence (P28223 whole entry): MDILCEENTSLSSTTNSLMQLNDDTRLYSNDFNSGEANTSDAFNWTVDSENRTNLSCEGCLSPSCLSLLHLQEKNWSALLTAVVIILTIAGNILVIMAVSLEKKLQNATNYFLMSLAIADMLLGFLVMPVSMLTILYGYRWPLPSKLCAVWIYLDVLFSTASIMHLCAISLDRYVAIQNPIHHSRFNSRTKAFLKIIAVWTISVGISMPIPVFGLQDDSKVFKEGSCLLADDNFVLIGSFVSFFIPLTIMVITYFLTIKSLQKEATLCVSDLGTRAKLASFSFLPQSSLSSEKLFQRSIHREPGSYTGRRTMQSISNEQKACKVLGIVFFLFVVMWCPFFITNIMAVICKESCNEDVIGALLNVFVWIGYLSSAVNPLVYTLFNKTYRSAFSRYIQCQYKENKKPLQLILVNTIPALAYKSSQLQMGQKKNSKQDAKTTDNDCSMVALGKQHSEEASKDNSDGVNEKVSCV
T4 sequence (P25021 whole entry): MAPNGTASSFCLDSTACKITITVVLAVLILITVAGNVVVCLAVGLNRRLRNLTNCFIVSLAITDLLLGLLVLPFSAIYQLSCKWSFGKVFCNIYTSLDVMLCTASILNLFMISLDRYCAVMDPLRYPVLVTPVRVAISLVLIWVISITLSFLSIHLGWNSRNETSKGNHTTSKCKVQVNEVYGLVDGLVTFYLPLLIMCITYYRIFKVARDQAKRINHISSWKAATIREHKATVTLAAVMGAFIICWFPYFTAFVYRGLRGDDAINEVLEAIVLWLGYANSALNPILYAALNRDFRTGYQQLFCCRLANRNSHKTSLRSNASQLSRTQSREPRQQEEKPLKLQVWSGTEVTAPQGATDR

Take `Cc1ccc2c(c1)c1c(n2CCc2cncnc2)CCN(C)C1` [Compound 387, 2,8-Dimethyl-5-(2-pyrimidin-5-yl-ethyl)-2,3,4,5-tetrahydro-1H-pyrido[4,3-b]indole]: the “Inhibition of ligand binding, Adren. alpha1D” value (shortened to “Inhibition … Adren. alpha1D”) in test [1] is on record as 47%. For the same compound, the “Inhibition of ligand binding, Dop. D2L” value in test [2] amounted to 1%. Further, the “Inhibition of ligand binding, Adren. alpha2A” value (shortened to “Inhibition … Adren. alpha2A”) in test [3] amounted to 12%. In addition, the inhibition at 1 µM in test [4] is 11%. In addition, the “Inhibition of ligand binding, Ser. 5-HT2A” value (shortened to “Inhibition … Ser. 5-HT2A”) in test [5] is recorded as 54%.

For `Cc1ccc(CCn2c3c(c4cc(C(C)C)ccc42)CN(C)CC3)cn1` [Compound 392, 8-Isopropyl-2-methyl-5-[2-(6-methyl-pyridin-3-yl)-ethyl]-2,3,4,5-tetrahydro-1H-pyrido[4,3-b]indole], in test [1], the “Inhibition … Adren. alpha1D” value came to 88%. In addition, the “Inhibition of ligand binding, Dop. D2L” value in test [2] came out at 24%. For the same compound, the “Inhibition … Adren. alpha2A” value in test [3] is listed as 89%. Besides, the inhibition at 1 µM in test [4] came to 58%. Also, the “Inhibition … Ser. 5-HT2A” value in test [5] came out at 53%.

For the compound `Cc1ccc2c(c1)c1c(n2CC(=O)N2Cc3ccccc3C2)CCN(C)C1` [Compound 397, 2-(1,2,3,4-tetrahydro-2,8-dimethylpyrido[4,3-b]indol-5-yl)-1-(isoindolin-2-yl)ethanone], in test [1], the “Inhibition … Adren. alpha1D” value is 19%. Also, the “Inhibition of ligand binding, Dop. D2L” value in test [2] was 5%. Also, the “Inhibition … Adren. alpha2A” value in test [3] is recorded as 16%. For the same compound, the inhibition at 1 µM in test [4] turned out to be 32%. Besides, the “Inhibition … Ser. 5-HT2A” value in test [5] stood at 50%.

For `Cc1ccc2c(c1)c1c(n2CC(=O)N2CCc3ccccc3C2)CCN(C)C1` [Compound 398, 2-(1,2,3,4-tetrahydro-2,8-dimethylpyrido[4,3-b]indol-5-yl)-1-(3,4-dihydroisoquinolin-2(1H)-yl)ethanone], the “Inhibition … Adren. alpha1D” value in test [1] is recorded as 17%. Moreover, the “Inhibition of ligand binding, Dop. D2L” value in test [2] is reported as 8%. Moreover, the “Inhibition … Adren. alpha2A” value in test [3] is listed as 23%. The inhibition at 1 µM in test [4] stood at 24%. The “Inhibition … Ser. 5-HT2A” value in test [5] is on record as 85%.

`Cc1ccc2c(c1)c1c(n2CC(=O)N2CCSCC2)CCN(C)C1` [Compound 399, 2-(1,2,3,4-tetrahydro-2,8-dimethylpyrido[4,3-b]indol-5-yl)-1-thiomorpholinoethanone]: the “Inhibition … Adren. alpha1D” value in test [1] was 6%. Besides, the “Inhibition of ligand binding, Dop. D2L” value in test [2] is listed as 0%. The “Inhibition … Adren. alpha2A” value in test [3] is 16%. Further, the inhibition at 1 µM in test [4] was 10%. Moreover, the “Inhibition … Ser. 5-HT2A” value in test [5] is listed as 8%.

`Cc1ccc2c(c1)c1c(n2CC(=O)N2CCCC(C)C2)CCN(C)C1` (centres unmarked) [Compound 401, 2-(1,2,3,4-tetrahydro-2,8-dimethylpyrido[4,3-b]indol-5-yl)-1-(3-methylpiperidin-1-yl)ethanone]: in test [1], the “Inhibition … Adren. alpha1D” value is recorded as 1%. The “Inhibition of ligand binding, Dop. D2L” value in test [2] is recorded as −12%. Further, in test [3], the “Inhibition … Adren. alpha2A” value was 3%. Moreover, the inhibition at 1 µM in test [4] came out at 14%. For the same compound, the “Inhibition … Ser. 5-HT2A” value in test [5] was 17%.

For `Cc1ccc(CCn2c3c(c4cc(Cl)ccc42)CN(c2cccc(C(F)(F)F)c2)CC3)cn1` [Compound 403, 8-Chloro-5-[2-(6-methyl-pyridin-3-yl)-ethyl]-2-(3-trifluoromethyl-phenyl)-2,3,4,5-tetrahydro-1H-pyrido[4,3-b]indole], the “Inhibition … Adren. alpha1D” value in test [1] was 19%. The “Inhibition of ligand binding, Dop. D2L” value in test [2] is 2%. For the same compound, the “Inhibition … Adren. alpha2A” value in test [3] was 30%. Moreover, the inhibition at 1 µM in test [4] was 10%. The “Inhibition … Ser. 5-HT2A” value in test [5] is 32%.

Turning to `Cc1ccc(CCn2c3c(c4cc(Cl)c(F)cc42)CN(C)CC3)cn1` [Compound 404, 8-Chloro-7-fluoro-2-methyl-5-[2-(6-methyl-pyridin-3-yl)-ethyl]-2,3,4,5-tetrahydro-1H-pyrido[4,3-b]indole], in test [1], the “Inhibition … Adren. alpha1D” value is 81%. In test [2], the “Inhibition of ligand binding, Dop. D2L” value was 35%. Also, the “Inhibition … Adren. alpha2A” value in test [3] stood at 94%. Moreover, in test [4], the inhibition at 1 µM came to 88%. Also, the “Inhibition … Ser. 5-HT2A” value in test [5] is listed as 88%.

In the case of `CN1CCN(CCn2c3c(c4cc(Cl)ccc42)CN(C)CC3)CC1` [Compound 417, 8-chloro-2,3,4,5-tetrahydro-2-methyl-5-(2-(4-methylpiperazin-1-yl)ethyl)-1H-pyrido[4,3-b]indole], the “Inhibition … Adren. alpha1D” value in test [1] was 1%. Also, in test [2], the “Inhibition of ligand binding, Dop. D2L” value is −12%. The “Inhibition … Adren. alpha2A” value in test [3] is listed as 28%. Moreover, the inhibition at 1 µM in test [4] came out at 19%. Also, in test [5], the “Inhibition … Ser. 5-HT2A” value is reported as 23%.

Turning to `CN1CCc2c(c3cc(Cl)ccc3n2CCc2cncnc2)C1` [Compound 424, 8-Chloro-2-methyl-5-(2-pyrimidin-5-yl-ethyl)-2,3,4,5-tetrahydro-1H-pyrido[4,3-b]indole], the “Inhibition … Adren. alpha1D” value in test [1] is 57%. For the same compound, the “Inhibition of ligand binding, Dop. D2L” value in test [2] is reported as 17%. In addition, in test [3], the “Inhibition … Adren. alpha2A” value turned out to be 28%. Further, the inhibition at 1 µM in test [4] stood at 19%. Further, the “Inhibition … Ser. 5-HT2A” value in test [5] is 52%.

Take `Cc1ccc2c(c1)c1c(n2CCc2cncc(C(F)(F)F)c2)CCN(C)C1` [Compound 425, 5-(2-(5-(trifluoromethyl)pyridin-3-yl)ethyl)-2,3,4,5-tetrahydro-2,8-dimethyl-1H-pyrido[4,3-b]indole]: the “Inhibition … Adren. alpha1D” value in test [1] is reported as 65%. The “Inhibition of ligand binding, Dop. D2L” value in test [2] was −1%. For the same compound, in test [3], the “Inhibition … Adren. alpha2A” value amounted to 49%. Besides, the inhibition at 1 µM in test [4] came to 85%. Moreover, in test [5], the “Inhibition … Ser. 5-HT2A” value turned out to be 84%.

Turning to `CN1CCc2c(c3cc(Cl)ccc3n2CCc2cncc(C(F)(F)F)c2)C1` [Compound 426, 8-chloro-5-(2-(5-(trifluoromethyl)pyridin-3-yl)ethyl)-2,3,4,5-tetrahydro-2-methyl-1H-pyrido[4,3-b]indole], the “Inhibition … Adren. alpha1D” value in test [1] is recorded as 69%. Moreover, in test [2], the “Inhibition of ligand binding, Dop. D2L” value was −7%. For the same compound, the “Inhibition … Adren. alpha2A” value in test [3] was determined as 42%. Also, the inhibition at 1 µM in test [4] was 66%. For the same compound, the “Inhibition … Ser. 5-HT2A” value in test [5] is reported as 85%.

On to `Cc1cncc(CCn2c3c(c4cc(C)ccc42)CN(C)CC3)c1` [Compound 429, 2,3,4,5-tetrahydro-2,8-dimethyl-5-(2-(5-methylpyridin-3-yl)ethyl)-1H-pyrido[4,3-b]indole], for which the “Inhibition … Adren. alpha1D” value in test [1] is on record as 69%. Moreover, the “Inhibition of ligand binding, Dop. D2L” value in test [2] was 23%. Besides, the “Inhibition … Adren. alpha2A” value in test [3] was found to be 67%. Also, the inhibition at 1 µM in test [4] is 68%. In addition, in test [5], the “Inhibition … Ser. 5-HT2A” value turned out to be 76%.

As usually defined, the inhibition is the change of the read-out against control, counted positive when it falls.
